Experimental data reported in patent publication US20100210536A1, “USE OF LEPTIN (22-56 ) AS A THERAPEUTIC AGENT” (priority 2007, published 2010).
Where no end group is shown, it is not given here.

Test system: drug-resistant Mycobacterium tuberculosis
Conditions: peptide 10 micrograms per ml, seven days

With “VPIQKVQDDTKTLIKTIVTRINDISHTQSVSSKQK-OH [Leptin (22-56)]” the “% inhibition” value was 0.0%.
